The values that follow come from patent US9918972B2, “Treatment of leukemia with artemisinin derivatives and combinations with other antineoplastic agents” (UNIVERSITY OF MARYLAND, BALTIMORE, priority 2014, dated 2018).

For experiment [1], the system named is MOLM14 cells. Briefly: ROS - mitochondrial superoxide (MitoSOX flow cytometry). The following applies: for effect on AS-induced superoxide generation: MOLM14, combined with AS, 2.25x IC50s; for effect on AS-induced superoxide generation / effect on ART-838-induced superoxide generation: 16 h; for effect on ART-838-induced superoxide generation: MOLM14, combined with ART-838, 2.25x IC50s. In kind it is cell-based, human. The procedure:
FIGS. 4A-4D. […] CIs were computed as described above. CI<1 indicates synergy, CI=1, additivity, CI>1, antagonism. […] Cells were then loaded with 5 μM MitoSox for 30 min, washed, and analyzed by flow cytometry for MitoSox fluorescence (indicating mitochondrial superoxide) in the FL2 channel. […] Error bars represent the SEM of three independent experiments.
Background: Flow cytometry measures light scatter and fluorescence of single cells or particles in a stream.

Experiment [2] concerns MOLM14-luc AML xenografts. Briefly: Subcutaneous MOLM14-luc xenograft growth in NSG mice (ARA with ART-838). It counts as in vivo. Particulars: ARA 40 mg/kg/d i.p. plus ART-838 200 mg/kg/d p.o. The procedure:
FIG. 14. ART-838 enhanced in vivo efficacy of ARA against acute leukemia xenografts in NSG mice. NSG mice transplanted subcutaneously with luciferase labeled MOLM14 (MOLM14-luc) AML cells, were treated with vehicle, ARA (“Ara-C”), ART-838 or ART-838 plus ARA starting on day 17 after transplantation. Ara-C (40 mg/kg/d) was given i.p. on day 17, 18, 19, 20, 21 and 24. ART-838 (200 mg/kg/d) was given p.o. on day 17, 20 and 24. Mouse tumors were measured on the indicated days.
Highly immunodeficient NSG mice, obtained originally from Jackson Laboratory (Bar Harbor, Me.), were bred and housed in the UMSOM animal facilities, and handled in a laminar flow hood under aseptic conditions. All experiment procedures and animal care were in compliance with the NIH guidelines for the Care and Use of Laboratory Animals and approved by the UMSOM Institutional Animal Care and Use Committee. ART-838 were formulated in Tween 80:ethanol (7:3, v:v) and diluted 1:10 in filtered deionized water immediately before administration. […] Mice were monitored daily and euthanized when tumors reached an estimated mass of 2000 mg (using the formula: [length×width2]/2, assuming density=1 mg/mm3).
The anti-leukemic efficacy of ART-838 plus ARA was tested in NSG mice transplanted subcutaneously with luciferase labeled MOLM14 (MOLM14-luc) AML cells. […] Mouse tumors were measured with calipers on the indicated days.

Another experiment deals with KOPN8 cells. Briefly: alamarBlue cytotoxicity assay, single-drug IC50, 48 h. In kind it is cell-based. The following applies: Homo sapiens, KOPN-8. The procedure: Cytotoxicity was assessed using alamarBlue assays (Life Technologies, Grand Island, N.Y.; used for IC50 determinations and all drug combinations except the drug combination screen (method described separately below)) or Trypan Blue dye exclusion (Life Technologies, Grand Island, N.Y.; used only for experiments using inhibitors that could interfere with alamarBlue assay performance (NAC, Tiron, DFO)).
Cell lines were seeded in 96-well tissue culture plates at 10^4 cells per well (myeloid leukemia lines) or 2×10^4 cells per well (lymphoid leukemia lines) in culture medium, followed by addition of drugs at the indicated concentrations. 2-4 wells per plate containing media-only were included for background subtraction. Peripheral wells were filled with sterile water to minimize the effects of evaporation.
MOLM14 cells were treated with each of these drugs, alone and in combination with ART-838 or AS at an equipotency ratio based on the IC50s for each drug (Table 1). In Table 1, KOPN8 and MOLM14 cell lines were treated with a range of concentrations of each drug for 48 h then cytotoxicity was measured via alamarBlue assay. Results were normalized to cells treated with vehicle (≦0.5% DMSO) alone. IC50s were calculated using CompuSyn software and represent the means of at least three experiments performed in triplicate. Addition of ART-838 or AS enhanced the cytotoxicity of all six tested drugs across a range of concentrations (FIG. 2). Drug interactions were typically most favorable (more additive/synergistic or less antagonistic) at higher doses.
(In general: Alamar Blue is a resazurin reagent that responds to reducing activity.)

Experiment [3] has as its system MOLM14 cells. The description is as above. In kind it is cell-based, human. The procedure:
Peripheral wells were filled with sterile water to minimize the effects of evaporation. […] Results were normalized to cells treated with vehicle (≦0.5% DMSO) alone. IC50s were calculated using CompuSyn software and represent the means of at least three experiments performed in triplicate.

In experiment [4] the test system is MOLM14 cells. Briefly: Preliminary cytotoxicity of ROS/iron inhibitors (Trypan Blue dye exclusion assays). In kind it is cell-based, human. Particulars: read-out: approximate 48-hour IC50.
For experiment [5], the system named is MOLM14 cells. Briefly: Drug combination analysis (Chou and Talalay), simultaneous 48 h treatment, alamarBlue. It counts as cell-based, human. Particulars: MOLM14, combined with AS, 2.25x single-drug IC50s. The procedure: FIGS. 2A-2B. ART-838 or AS enhanced the cytotoxicity of all six antileukemic drugs tested in MOLM14. […] Each experiment was performed three times in triplicate, and error bars represent the SEM. All panels have error bars but some are too small to be visible. Combination indices (CI) were computed for each drug combination using CompuSyn software, based on the Median Effect Principle and the CI theorem of Chou-Talalay, wherein CI=1 indicates additivity, CI<1 synergism, and CI>1 antagonism.
FIGS. 4A-4D. Effects of ART-838- and AS-containing drug combinations on MOLM14 growth and superoxide generation. […]. CIs were computed as described above. CI<1 indicates synergy, CI=1, additivity, CI>1, antagonism. […] Cells were then loaded with 5 μM MitoSox for 30 min, washed, and analyzed by flow cytometry for MitoSox fluorescence (indicating mitochondrial superoxide) in the FL2 channel. Mean fluorescence intensity (MFI) was normalized to that of vehicle control (0.5% DMSO) with no pretreatment (100%, lower dotted lines). Upper dotted lines show MFI of ART-838- or AS-treated cells. Error bars represent the SEM of three independent experiments.
For each two-drug pair, dose-response curves were generated for each drug individually and for the two drugs combined. […]. […]

Another experiment deals with MOLM14 AML xenografts. Briefly: Subcutaneous MOLM14 xenograft growth in NSG mice (SOR with AS). In kind it is in vivo. The following applies: SOR plus AS p.o. The procedure:
FIG. 15. AS enhanced in vivo efficacy of Sorafenib (SOR) against acute leukemia xenografts in NSG mice. […] Drug or vehicle were given p.o. on day 3-7, 17-21, and 31-35 when possible. Mouse tumors were measured on the indicated days.
The NSG mice were obtained, maintained and handled as described in the paragraph immediately above. AS was also formulated in Tween 80:ethanol (7:3, v:v) and diluted 1:10 in filtered deionized water immediately before administration. For the human AML xenograft model, 6-12-week-old male NSG mice (>20 g) were transplanted sc with MOLM14 cells on day 0 and drug-treated via oral gavage, as specified in legend. Mice were monitored daily and euthanized when tumors reached an estimated mass of 2000 mg as described in the paragraph immediately above.
Palpable tumors appeared about 2 weeks after transplantation.

[6] abbreviates: Homo sapiens, MOLM-14, MOLM14, single drug, 48 h, alamarBlue.

Entries after “also recorded” stand apart in the source; their conditions may differ. Structures can show the parent of a compound that is named as a salt.

In the case of `Nc1ccn([C@@H]2O[C@H](CO)[C@@H](O)[C@@H]2O)c(=O)n1` [ARA, cytarabine], the “effect on AS-induced superoxide generation” value with MOLM14 cells [1] was “further enhanced”. Also, the “tumor growth (tumor size on day 24)” value in experiment [2] is “inhibited tumor growth substantially more than did either drug alone”. The concentration for half-maximal inhibition (IC50) (in general, the concentration at which inhibition is half-maximal) in the experiment with KOPN8 cells came out at 0.073 µM.

Compound `C[C@@H]1CCC2[C@@H](C)[C@@H](CC(COP(=O)(Oc3ccccc3)Oc3ccccc3)C[C@H]3O[C@@H]4O[C@@]5(C)CCC6[C@H](C)CCC([C@H]3C)[C@]64OO5)O[C@@H]3O[C@@]4(C)CCC1[C@@]23OO4` (stereo partly shown) [ART-838, artemisinin-derived trioxane diphenylphosphate dimer 838] displayed a concentration for half-maximal inhibition (IC50) with MOLM14 cells [3] (MOLM14 (AML) cell line) of 0.025 µM. In addition, the “mitochondrial superoxide (MitoSox MFI)” value in the experiment on MOLM14 cells [1] (MOLM14, drug alone, 2.25x IC50, 16 h) is “increased; also recorded: induced superoxide to greater levels than AS”.

`CC(=O)N(O)CCCCCNC(=O)CCC(=O)N(O)CCCCCNC(=O)CCC(=O)N(O)CCCCCN` [DFO, deferoxamine mesylate]: the concentration for half-maximal inhibition (IC50) in the experiment on MOLM14 cells [4] (Homo sapiens, MOLM-14, 48 h) is roughly 11 µM.

Consider `COc1cccc2c1C(=O)c1c(O)c3c(c(O)c1C2=O)C[C@@](O)(C(=O)CO)C[C@@H]3O[C@H]1C[C@H](N)[C@H](O)[C@H](C)O1` [DOX, doxorubicin], for which the figures for the IC50 in the experiment on MOLM14 cells [3] (setting [6]) and in the experiment with KOPN8 cells were 0.079 µM and 0.03 µM, respectively. In addition, the “effect on ART-838-induced superoxide generation” value with MOLM14 cells [1] is given as “further enhanced”. Moreover, the “effect on AS-induced superoxide generation” value in the experiment with MOLM14 cells [1] is recorded as “further enhanced”.

On to `COc1cc([C@@H]2c3cc4c(cc3[C@@H](O[C@@H]3O[C@@H]5CO[C@@H](C)O[C@H]5[C@H](O)[C@H]3O)[C@H]3COC(=O)[C@H]23)OCO4)cc(OC)c1O` [ETO, etoposide], for which, in the experiment on MOLM14 cells [1], the “effect on ART-838-induced superoxide generation” value is recorded as “further enhanced” and the “effect on AS-induced superoxide generation” value is “further enhanced”. In addition, in the experiment on KOPN8 cells, the IC50 was 0.15 µM.

For the compound `C[C@]12O[C@H](C[C@]1(O)CO)n1c3ccccc3c3c4c(c5c6ccccc6n2c5c31)CNC4=O` [LES, lestaurtinib], the half-maximal inhibitory concentration (IC50) came to 0.003 µM in the experiment with MOLM14 cells [3] (setting [6]) and 0.045 µM in the experiment on KOPN8 cells. Besides, the “Combination index (CI), interaction” value in the experiment with MOLM14 cells [5] came out at 1.5.

As to `CC(=O)N[C@@H](CS)C(=O)O` [NAC], the IC50 in the experiment on MOLM14 cells [4] (MOLM14, preliminary experiments) is roughly 25000 µM.

With `CNC(=O)c1cc(Oc2ccc(NC(=O)Nc3ccc(Cl)c(C(F)(F)F)c3)cc2)ccn1` [SOR, sorafenib], the results for the IC50 in the experiment with MOLM14 cells [3] (setting [6]) and in the experiment on KOPN8 cells were 0.004 µM and 4.2 µM, respectively. Also, the “effect on AS-induced superoxide generation” value in the experiment on MOLM14 cells [1] is given as “reduced”. In addition, the “tumor growth (tumor size on day 24)” value in the experiment with MOLM14 AML xenografts is “inhibited tumor growth substantially more than did either drug alone”.

`O=S(=O)(O)c1cc(O)c(O)c(S(=O)(=O)O)c1` [Tiron]: the IC50 with MOLM14 cells [4] (Homo sapiens, MOLM-14, 48 h, MOLM14, preliminary experiments) is roughly 1000 µM.
